Assay results: ChEMBL document CHEMBL3108775, “Rescuing biological activity from synthetic phakellistatin 19” (J Med Chem, 2013)
Numbered stars: 1 amine (or outer) side, 2 acyl side, 3 side chain; on linkers, the order of the positions; unused ones are H or OH. Square brackets hold non-standard residues; d marks the D form. Peptide text beside a SMILES is read from it. X1 = CC1(C)SC[C@@H](C(=O)[*:2])N1[*:1]

Tests used:
HT-29 [1] = assay: Cytotoxicity against human HT-29 cells by MTT assay; format: functional
MDA-MB-231 [2] = assay: Cytotoxicity against human MDA-MB-231 cells by MTT assay; format: functional
A549 [3] = assay: Cytotoxicity against human A549 cells by MTT assay; format: functional
A549 [4] = assay: Antimitotic activity against human A549 cells; format: functional, cell-based
MDA-MB-231 [5] = assay: Antimitotic activity against human MDA-MB-231 cells; format: functional, cell-based
HT-29 [6] = assay: Antimitotic activity against human HT-29 cells; format: functional, cell-based

Row | Structure (SMILES) | GI50 (HT-29 [1]) [µM] | LC50 (HT-29 [1]) [µM] | TGI (HT-29 [1]) [µM] | GI50 (MDA-MB-231 [2]) [µM] | LC50 (MDA-MB-231 [2]) [µM] | TGI (MDA-MB-231 [2]) [µM] | GI50 (A549 [3]) [µM] | LC50 (A549 [3]) [µM] | TGI (A549 [3]) [µM] | IC50 (A549 [4]) [µM] | IC50 (MDA-MB-231 [5]) [µM] | IC50 (HT-29 [6]) [µM]
1 | CC[C@H](C)[C@@H]1NC(=O)[C@@H]2CSC(C)(C)N2C(=O)[C@H]([C@@H](C)O)NC(=O)[C@H](CC(C)C)NC(=O)[C@@H]2CCCN2C(=O)[C@H](Cc2ccccc2)NC(=O)[C@H](Cc2c[nH]c3ccccc23)NC(=O)[C@@H]2CSC(C)(C)N2C1=O (cyclo(FPLT[X1]I[X1]W)) | 1.82 | 2.39 | 2.11 | 2.2 | 5.08 | 3.35 | 3.64 | > 9.58 | > 9.58 | – | – | –
2 | CC[C@H](C)[C@@H]1NC(=O)[C@@H]2CSC(C)(C)N2C(=O)[C@H]([C@@H](C)O)NC(=O)[C@H](CC(C)C)NC(=O)[C@@H]2CSC(C)(C)N2C(=O)[C@H](Cc2ccccc2)NC(=O)[C@H](Cc2c[nH]c3ccccc23)NC(=O)[C@@H]2CCCN2C1=O (cyclo(F[X1]LT[X1]IPW)) | 1.82 | 2.68 | 2.2 | 1.72 | 2.3 | 2.01 | 3.45 | > 9.58 | 7.85 | – | – | –
3 | CC[C@H](C)[C@@H]1NC(=O)[C@@H]2CSC(C)(C)N2C(=O)[C@H]([C@@H](C)O)NC(=O)[C@H](CC(C)C)NC(=O)[C@@H]2CCCN2C(=O)[C@H](Cc2ccccc2)NC(=O)[C@H](Cc2c[nH]c3ccccc23)NC(=O)[C@@H]2CCCN2C1=O (cyclo(FPLT[X1]IPW)) | 4.01 | 4.61 | 4.21 | 2.7 | 6.01 | 4.11 | > 10 | > 10 | > 10 | – | – | –
4 | CC[C@H](C)[C@@H]1NC(=O)[C@@H]2CCCN2C(=O)[C@H]([C@@H](C)O)NC(=O)[C@H](CC(C)C)NC(=O)[C@@H]2CCCN2C(=O)[C@H](Cc2ccccc2)NC(=O)[C@H](Cc2c[nH]c3ccccc23)NC(=O)[C@@H]2CCCN2C1=O [STYLISSAMIDE X] (cyclo(FPLTPIPW)) | 0.462 | > 10.5 | 0.672 | 0.515 | > 10.5 | 1.47 | 0.44 | > 10.5 | 1.16 | 0.084 | 0.084 | 0.084
5 | CC[C@H](C)[C@@H]1NC(=O)[C@@H]2CCCN2C(=O)[C@H]([C@@H](C)O)NC(=O)[C@H](CC(C)C)NC(=O)[C@@H]2CSC(C)(C)N2C(=O)[C@H](Cc2ccccc2)NC(=O)[C@H](Cc2c[nH]c3ccccc23)NC(=O)[C@@H]2CCCN2C1=O (cyclo(F[X1]LTPIPW)) | 5.71 | > 10 | > 10 | 6.11 | > 10 | > 10 | > 10 | > 10 | > 10 | – | – | –
6 | CC[C@H](C)[C@@H]1NC(=O)[C@@H]2CSC(C)(C)N2C(=O)[C@H]([C@@H](C)O)NC(=O)[C@H](CC(C)C)NC(=O)[C@@H]2CSC(C)(C)N2C(=O)[C@H](Cc2ccccc2)NC(=O)[C@H](Cc2c[nH]c3ccccc23)NC(=O)[C@@H]2CSC(C)(C)N2C1=O (cyclo(F[X1]LT[X1]I[X1]W)) | 1.38 | 2.11 | 1.74 | 1.65 | 2.2 | 1.93 | 1.47 | 1.83 | 1.65 | – | – | –
7 | CC[C@H](C)[C@@H]1NC(=O)[C@@H]2CCCN2C(=O)[C@H]([C@@H](C)O)NC(=O)[C@H](CC(C)C)NC(=O)[C@@H]2CSC(C)(C)N2C(=O)[C@H](Cc2ccccc2)NC(=O)[C@H](Cc2c[nH]c3ccccc23)NC(=O)[C@@H]2CSC(C)(C)N2C1=O (cyclo(F[X1]LTPI[X1]W)) | 3.16 | > 9.58 | 6.61 | 5.65 | > 9.58 | > 9.58 | > 9.58 | > 9.58 | > 9.58 | – | – | –
8 | CC[C@H](C)[C@@H]1NC(=O)[C@@H]2CCCN2C(=O)[C@H]([C@@H](C)O)NC(=O)[C@H](CC(C)C)NC(=O)[C@@H]2CCCN2C(=O)[C@H](Cc2ccccc2)NC(=O)[C@H](Cc2c[nH]c3ccccc23)NC(=O)[C@@H]2CSC(C)(C)N2C1=O (cyclo(FPLTPI[X1]W)) | > 10 | > 10 | > 10 | > 10 | > 10 | > 10 | > 10 | > 10 | > 10 | – | – | –
